Test results taken from patent US20200181104A1, “SSAO INHIBITORS AND USES THEREOF” (METACRINE, INC., priority 2018, published 2020).
Counter-ions that a name gives are not always drawn.

Target: T1, Recombinant Human SSAO/VAP-1/AOC3 (Homo sapiens, UniProt Q16853)
T1 construct: purchased R&D systems 3957-AO
T1 sequence (Q16853 1-763): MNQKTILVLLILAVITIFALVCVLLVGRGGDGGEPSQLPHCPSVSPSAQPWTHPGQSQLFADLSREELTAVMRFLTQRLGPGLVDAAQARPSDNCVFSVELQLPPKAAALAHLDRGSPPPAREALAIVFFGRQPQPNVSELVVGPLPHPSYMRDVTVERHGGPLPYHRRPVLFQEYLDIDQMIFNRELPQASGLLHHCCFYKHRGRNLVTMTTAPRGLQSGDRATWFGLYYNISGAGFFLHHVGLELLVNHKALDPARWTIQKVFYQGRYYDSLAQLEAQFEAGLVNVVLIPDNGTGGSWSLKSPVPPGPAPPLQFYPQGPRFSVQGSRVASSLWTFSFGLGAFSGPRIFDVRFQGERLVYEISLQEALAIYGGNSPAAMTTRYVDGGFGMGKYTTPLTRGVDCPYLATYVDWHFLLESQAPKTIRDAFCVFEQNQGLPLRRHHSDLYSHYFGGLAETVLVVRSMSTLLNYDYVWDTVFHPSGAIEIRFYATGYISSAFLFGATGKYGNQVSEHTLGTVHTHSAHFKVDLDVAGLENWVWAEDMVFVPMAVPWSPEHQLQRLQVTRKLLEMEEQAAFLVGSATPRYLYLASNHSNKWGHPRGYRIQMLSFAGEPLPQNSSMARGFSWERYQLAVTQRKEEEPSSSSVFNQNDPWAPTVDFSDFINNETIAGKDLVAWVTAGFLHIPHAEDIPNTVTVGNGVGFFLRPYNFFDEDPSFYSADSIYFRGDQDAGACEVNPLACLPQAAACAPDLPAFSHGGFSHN
Assay: Human Semicarbazide-Sensitive Amine Oxidase (SSAO) Assay
Assay type: biochemical
Settings: recombinant enzyme, 30 minutes preincubation at 37° C., benzylamine substrate, Amplex Ultra Red/HRP fluorescence
Method in brief: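 Recombinant human SSAO/VAP-1 (2.5 μg/ml working stock in 50 mM HEPES) preincubated with compound 30 min at 37 °C over a 6-10 point CRC. Benzylamine substrate starts the reaction. H2O2 read kinetically over 30-120 min via Amplex Ultra Red/HRP fluorescence (ex 544/em 590 nm) to derive IC50.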

IC50	Structure (SMILES)
≤ 10 nM	NC/C(=C\F)COc1ccc(C23CCC(C(=O)NCCC(=O)N4CCOCC4)(CC2)CC3)cc1 [Compound 2.68, (E)-4-(4-((2-(aminomethyl)-3-fluoroallyl)oxy)phenyl)-N-(3-morpholino-3-oxopropyl)bicyclo[2.2.2]octane-1-carboxamide]
≤ 10 nM	NC/C(=C\F)COc1ccc(C23CCC(C(=O)NC4(c5ccccc5)CCOCC4)(CC2)CC3)cc1 [Compound 2.69, (E)-4-(4-((2-(aminomethyl)-3-fluoroallyl)oxy)phenyl)-N-(4-phenyltetrahydro-2H-pyran-4-yl)bicyclo[2.2.2]octane-1-carboxamide]
≤ 10 nM	NC/C(=C\F)COc1ccc(C23CCC(C(=O)N4CC5CCC(C4)O5)(CC2)CC3)cc1 [Compound 2.71, (E)-(4-(4-((2-(aminomethyl)-3-fluoroallyl)oxy)phenyl)bicyclo [2.2.2]octan-1-yl)(8-oxa-3-azabicyclo[3.2.1]octan-3-yl)methanone]
≤ 10 nM	NC/C(=C\F)COc1ccc(C23CCC(C(=O)NC4(CO)CCOCC4)(CC2)CC3)cc1 [Compound 2.72, (E)-4-(4-((2-(aminomethyl)-3-fluoroallyl)oxy)phenyl)-N-(4-(hydroxymethyl)tetrahydro-2H-pyran-4-yl)bicyclo[2.2.2]octane-1-carboxamide]
≤ 10 nM	NC/C(=C\F)COc1ccc(C23CCC(C(=O)NC4(CO)CC4)(CC2)CC3)cc1 [Compound 2.73, (E)-4-(4-((2-(aminomethyl)-3-fluoroallyl)oxy)phenyl)-N-(1-(hydroxymethyl)cyclopropyl) bicyclo[2.2.2]octane-1-carboxamide]
≤ 10 nM	NC/C(=C\F)COc1ccc(C23CCC(C(=O)NCC(F)(F)CO)(CC2)CC3)cc1 [Compound 2.74, (E)-4-(4-((2-(aminomethyl)-3-fluoroallyl)oxy)phenyl)-N-(2,2-difluoro-3-hydroxypropyl)bicyclo[2.2.2] octane-1-carboxamide]
≤ 10 nM	NC/C(=C\F)COc1ccc(C23CCC(C(=O)NCCN4CCOCC4)(CC2)CC3)cc1 [Compound 2.75, (E)-4-(4-((2-(aminomethyl)-3-fluoroallyl)oxy)phenyl)-N-(2-morpholinoethyl)bicyclo[2.2.2] octane-1-carboxamide]
≤ 10 nM	NC/C(=C\F)COc1ccc(C23CCC(C(=O)Nc4ncco4)(CC2)CC3)cc1 [Compound 2.76, (E)-4-(4-((2-(aminomethyl)-3-fluoroallyl)oxy)phenyl)-N-(oxazol-2-yl)bicyclo[2.2.2]octane-1-carboxamide]
≤ 10 nM	CC(C)(CO)CNC(=O)C12CCC(c3ccc(OC/C(=C/F)CN)cc3)(CC1)CC2 [Compound 2.77, (E)-4-(4-((2-(aminomethyl)-3-fluoroallyl)oxy)phenyl)-N-(3-hydroxy-2,2-dimethylpropyl)bicyclo[2.2.2] octane-1-carboxamide]
≤ 10 nM	NC/C(=C\F)COc1ccc(C23CCC(C(=O)N4CC[C@@H]4CO)(CC2)CC3)cc1 [Compound 2.78, (R,E)-(4-(4-((2-(aminomethyl)-3-fluoroallyl)oxy)phenyl)bicyclo [2.2.2]octan-1-yl)(2-(hydroxymethyl)azetidin-1-yl)methanone]
≤ 10 nM	COCCN(C)C(=O)C12CCC(c3ccc(OC/C(=C/F)CN)cc3)(CC1)CC2 [Compound 2.79, (E)-4-(4-((2-(aminomethyl)-3-fluoroallyl)oxy)phenyl)-N-(2-methoxyethyl)-N-methylbicyclo[2.2.2]octane-1-carboxamide]
≤ 10 nM	NC/C(=C\F)COc1ccc(C23CCC(C(=O)NCc4ccccc4)(CC2)CC3)cc1 [Compound 2.80, (E)-4-(4-((2-(aminomethyl)-3-fluoroallyl)oxy)phenyl)-N-benzylbicyclo[2.2.2]octane-1-carboxamide]
≤ 10 nM	Cc1n[nH]c(C)c1CNC(=O)C12CCC(c3ccc(OC/C(=C/F)CN)cc3)(CC1)CC2 [Compound 2.81, (E)-4-(4-((2-(aminomethyl)-3-fluoroallyl)oxy)phenyl)-N-((3,5-dimethyl-1H-pyrazol-4-yl)methyl)bicyclo[2.2.2]octane-1-carboxamide]
≤ 10 nM	NC/C(=C\F)COc1ccc(C23CCC(C(=O)N4CC5(CCOCC5)C4)(CC2)CC3)cc1 [Compound 2.82, (E)-(4-(4-((2-(Aminomethyl)-3-fluoroallyl)oxy)phenyl)bicyclo[2.2.2]octan-1-yl)(7-oxa-2-azaspiro[3.5]nonan-2-yl)methanone Hydrochloride]
≤ 10 nM	COCCCNC(=O)C12CCC(c3ccc(OC/C(=C/F)CN)cc3)(CC1)CC2 [Compound 2.83, (E)-4-(4-((2-(aminomethyl)-3-fluoroallyl)oxy)phenyl)-N-(3-methoxypropyl)bicyclo[2.2.2] octane-1-carboxamide]
≤ 10 nM	NC/C(=C\F)COc1ccc(C23CCC(C(=O)NC4CC5CCC(C4)O5)(CC2)CC3)cc1 (stereo not shown) [Compound 2.84, (E)-4-(4-((2-(aminomethyl)-3-fluoroallyl)oxy)phenyl)-N-(8-oxabicyclo[3.2.1]octan-3-yl)bicyclo[2.2.2]octane-1-carboxamide]
≤ 10 nM	NC/C(=C\F)COc1ccc(C23CCC(C(=O)N4CCC(OCCO)CC4)(CC2)CC3)cc1 [Compound 2.85, (E)-(4-(4-((2-(aminomethyl)-3-fluoroallyl)oxy)phenyl)bicyclo [2.2.2]octan-1-yl)(4-(2-hydroxyethoxy)piperidin-1-yl)methanone]
≤ 10 nM	COCC1(NC(=O)C23CCC(c4ccc(OC/C(=C/F)CN)cc4)(CC2)CC3)CCOCC1 [Compound 2.86, (E)-4-(4-((2-(aminomethyl)-3-fluoroallyl)oxy)phenyl)-N-(4-(methoxymethyl)tetrahydro-2H-pyran-4-yl)bicyclo[2.2.2]octane-1-carboxamide]
≤ 10 nM	CC1(NC(=O)C23CCC(c4ccc(OC/C(=C/F)CN)cc4)(CC2)CC3)CCOC1 (stereo not shown) [Compound 2.87, (E)-4-(4-((2-(aminomethyl)-3-fluoroallyl)oxy)phenyl)-N-(3-methyltetrahydrofuran-3-yl)bicyclo[2.2.2]octane-1-carboxamide]
≤ 10 nM	CC(C)CNC(=O)C12CCC(c3ccc(OC/C(=C/F)CN)cc3)(CC1)CC2 [Compound 2.88, (E)-4-(4-((2-(aminomethyl)-3-fluoroallyl)oxy)phenyl)-N-isobutylbicyclo[2.2.2]octane-1-carboxamide]
≤ 10 nM	CC(C)(O)CCNC(=O)C12CCC(c3ccc(OC/C(=C/F)CN)cc3)(CC1)CC2 [Compound 2.89, (E)-4-(4-((2-(aminomethyl)-3-fluoroallyl)oxy)phenyl)-N-(3-hydroxy-3-methylbutyl)bicyclo[2.2.2] octane-1-carboxamide]
≤ 10 nM	COCCOC1CN(C(=O)C23CCC(c4ccc(OC/C(=C/F)CN)cc4)(CC2)CC3)C1 [Compound 2.90, (E)-(4-(4-((2-(aminomethyl)-3-fluoroallyl)oxy)phenyl)bicyclo [2.2.2]octan-1-yl)(3-(2-methoxyethoxy)azetidin-1-yl)methanone]
≤ 10 nM	COC1CC(NC(=O)C23CCC(c4ccc(OC/C(=C/F)CN)cc4)(CC2)CC3)C1 (stereo not shown) [Compound 2.91, 4-(4-(((E)-2-(aminomethyl)-3-fluoroallyl)oxy)phenyl)-N-((1r,3r)-3-methoxycyclobutyl)bicyclo [2.2.2]octane-1-carboxamide]
≤ 10 nM	COC1(CNC(=O)C23CCC(c4ccc(OC/C(=C/F)CN)cc4)(CC2)CC3)CCC1 [Compound 2.92, (E)-4-(4-((2-(aminomethyl)-3-fluoroallyl)oxy)phenyl)-N-((1-methoxycyclobutyl)methyl) bicyclo[2.2.2]octane-1-carboxamide]
≤ 10 nM	NC/C(=C\F)COc1ccc(C23CCC(C(=O)NC45CC(O)(C4)C5)(CC2)CC3)cc1 [Compound 2.93, (E)-4-(4-((2-(aminomethyl)-3-fluoroallyl)oxy)phenyl)-N-(3-hydroxybicyclo[1.1.1]pentan-1-yl)bicyclo[2.2.2]octane-1-carboxamide]
≤ 10 nM	NC/C(=C\F)COc1ccc(C23CCC(C(=O)N4CC(OC(F)(F)F)C4)(CC2)CC3)cc1 [Compound 2.94, (E)-(4-(4-((2-(aminomethyl)-3-fluoroallyl)oxy)phenyl)bicyclo [2.2.2]octan-1-yl)(3-(trifluoromethoxy)azetidin-1-yl)methanone]
≤ 10 nM	CO[C@H]1C[C@@H](NC(=O)C23CCC(c4ccc(OC/C(=C/F)CN)cc4)(CC2)CC3)C1 [Compound 2.95, 4-(4-(((E)-2-(Aminomethyl)-3-fluoroallyl)oxy)phenyl)-N-(cis-3-methoxycyclobutyl)bicyclo[2.2.2]octane-1-carboxamide Hydrochloride]
≤ 10 nM	NC/C(=C\F)COc1ccc(C23CCC(C(=O)NCC4(O)CCC4)(CC2)CC3)cc1 [Compound 2.96, (E)-4-(4-((2-(aminomethyl)-3-fluoroallyl)oxy)phenyl)-N-((1-hydroxycyclobutyl)methyl) bicyclo[2.2.2]octane-1-carboxamide]
